Assay [1] concerns invasion of colorectal cancer cells. The experiment in a line: In vivo relative invation (invasion; EV and KITENIN controls, no method described). The conditions noted are these: relative to EV (=1); KIT = KITENIN.
Assay [2] relates to KAI1 promoter. Briefly: KAI1 promoter luciferase reporter assay in transfected Caco2 cells. The class given is cell-based, human. The conditions noted are these: Homo sapiens, Caco-2, 16 h, read-out: Relative KAI promoter activity. How it is done:
Experiments were conducted to evaluate the metastasis-related promoter activity-increasing effects of the compounds according to the present invention. Specifically, the KAI1 promoter reporter vector was used. In this case, the pRL-TK vector, a vector expressing renilla luciferase, was used as an internal control indicating the transfection efficiency in each transfected well.
First, 24 hours before transfection, 2×10^6 human colon cancer cell line, Caco2) cells were cultured in 10 ml of DMEM containing 10% FBS and 1% penicillin/streptomycin on a 100-mm-diameter plate, and then transformed with 5 μg of a pRL-TK vector mixture containing a transfection reagent and the KAI1 promoter, and then cultured in a 5% CO2 incubator at 37° C. for 48 hours. Thereafter, the adherent cells were detached using trypsin and counted using a hemacytometer, and then 5×10^3 transfected Caco2 cells in 100 μl of DMEM containing 10% FBS and 1% penicillin/streptomycin were seeded into each well of a 96-well plate and cultured in a 5% CO2 incubator at 37° C. for 24 hours. Next, 1 μM of each of the 305 compounds prepared in Examples 1 to 305 was added to each well, and after 16 hours, 100 μl of a lysis buffer for analysis containing a luciferase substrate was added, and the cells were lysed with stirring for 20 minutes. After completion of lysis, the cells were measured for luciferase activity using a luciferase reporter assay system (Promega, USA). […] In addition, data were analyzed at a significance level of p<0.05 by one-way ANOVA (Tukey's HSD), and SPSS 17.0 (Chicago, USA) statistical program was used. In Table 14 to 20, PHA is the PHA-665752, and KIT is KITENIN.

Setting [3] is: 1 μM compound, 16 hours, transfected Caco2 cells, luciferase activity relative to DMSO control (=1).

Values joined by “and” are separate entries in the source; they are usually repeats but may differ in a detail not shown here. Equal values may be shown once. Read-outs that look alike come from different tables or passages of the source.

With `CCCCN(C)Cc1ccc(C(=O)NCC(=O)c2ccccc2)cc1` [Example 271, 4-((butyl (methyl)amino)methyl)-N-(2-oxo-2-phenylethyl)benzamide], the “In vivo relative invation” value in assay [1] stood at 1.228. Further, in assay [2] (setting [3]), the fold induction at 1 µM was found to be 1.31. The matching figures for `CN(C)c1ccc(C(=O)CNC(=O)c2ccccc2F)cc1` [Example 90, N-(2-(4-(dimethylamino)phenyl)-2-oxoethyl)-2-fluorobenzamide]: 1.124 and 1.88. `O=C(CNC(=O)c1ccc(Cl)cc1)c1ccc(Cl)cc1` [Example 87, 4-chloro-N-(2-(4-chlorophenyl)-2-oxoethyl)benzamide]: the “In vivo relative invation” value in assay [1] amounted to 1.218. The fold induction at 1 µM in assay [2] (setting [3]) was 0.91. Turning to `COc1cccc(C(=O)CNC(=O)c2ccc(Cl)cc2)c1` [Example 122, 4-chloro-N-(2-(3-methoxyphenyl)-2-oxoethyl)benzamide], the “In vivo relative invation” value in assay [1] came out at 1.374. Moreover, the fold induction at 1 µM in assay [2] (setting [3]) was 1.65. On to `O=C(CNC(=O)c1ccccc1F)c1ccccc1` [Example 3, 2-fluoro-N-(2-oxo-2-phenylethyl)benzamide], for which the “In vivo relative invation” value in assay [1] is given as 1. The fold induction at 1 µM in assay [2] amounted to 2.12. With `COCc1ccccc1C(=O)N1CCC(Oc2ccccc2C(=O)NCC(=O)c2ccccc2)CC1` [Example 169, 2-((1-(2-(methoxymethyl)benzoyl)piperidin-4-yl)oxy)-N-(2-oxo-2-phenylethyl)benzamide], in assay [1], the “In vivo relative invation” value came to 1.186. Moreover, the fold induction at 1 µM in assay [2] (setting [3]) stood at 0.99. The matching figures for `CCCCC(=O)NCC(=O)c1ccccc1` [Example 20, N-(2-oxo-2-phenylethyl)pentanamide]: 1.217 and 0.99. For `Cc1cccc(C(=O)NCC(=O)c2ccc(N(C)C)cc2)c1` [Example 98, N-(2-(4-(dimethylamino)phenyl)-2-oxoethyl)-3-methylbenzamide], in assay [1], the “In vivo relative invation” value is on record as 1.121. Further, the fold induction at 1 µM in assay [2] (setting [3]) worked out at 2.64. Take `CC(C)N(C)Cc1cccc(C(=O)NCC(=O)c2ccccc2)c1` [Example 233, 3-((isopropyl(methyl)amino)methyl)-N-(2-oxo-2-phenylethyl)benzamide]: the “In vivo relative invation” value in assay [1] stood at 1.026. The fold induction at 1 µM in assay [2] (setting [3]) was determined as 1.15. With `O=C(CNC(=O)c1ccccc1OC(F)(F)F)c1ccccc1` [Example 41, N-(2-oxo-2-phenylethyl)-2-(trifluoromethoxy)benzamide], in assay [1], the “In vivo relative invation” value amounted to 0.7565. Moreover, the fold induction at 1 µM in assay [2] (setting [3]) was 1.19. The like results for `COc1cccc(C(=O)CNC(=O)C2CCC2)c1` [Example 126, N-(2-(3-methoxyphenyl)-2-oxoethyl)cyclobutanecarboxamide] were, in that order, 1.352 and 1.08. For the compound `C/C=C/C(=O)NCC(=O)c1ccccc1` [Example 8, (E)-N-(2-oxo-2-phenylethyl)but-2-enamide], in assay [1], the “In vivo relative invation” value was 1.077. Also, the fold induction at 1 µM in assay [2] (setting [3]) amounted to 1.15. Consider `COc1cc(OC)cc(C(=O)NCC(=O)c2ccccc2)c1` [Example 42, 3,5-dimethoxy-N-(2-oxo-2-phenylethyl)benzamide], for which, in assay [1], the “In vivo relative invation” value turned out to be 1.525. In addition, in assay [2] (setting [3]), the fold induction at 1 µM is 1.12. `O=C(CNC(=O)c1ccccc1OC1CCN(C(=O)c2cccs2)CC1)c1ccccc1` [Example 168, N-(2-oxo-2-phenylethyl)-2-((1-(thiophene-2-carbonyl)piperidin-4-yl)oxy)benzamide]: in assay [1], the “In vivo relative invation” value was found to be 1.199. Moreover, in assay [2] (setting [3]), the fold induction at 1 µM came out at 1.05. The matching figures for `O=C(CNC(=O)c1ccccc1CN1CCN(c2ccccc2F)CC1)c1ccccc1` [Example 299, 2-((4-(2-fluorophenyl)piperazin-1-yl)methyl)-N-(2-oxo-2-phenylethyl)benzamide]: 1.068 and 2.17.

Take `CCC(=O)NCC(=O)c1ccc(Cl)cc1` [Example 54, N-(2-(4-chlorophenyl)-2-oxoethyl) propionamide]: in assay [1], the “In vivo relative invation” value was 1.083. In addition, in assay [2] (setting [3]), the fold induction at 1 µM came out at 0.7. Turning to `O=C(CNC(=O)c1cccc([N+](=O)[O-])c1)c1ccc(Cl)cc1` [Example 77, N-(2-(4-chlorophenyl)-2-oxoethyl)-3-nitrobenzamide], the “In vivo relative invation” value in assay [1] is listed as 1.274. Besides, the fold induction at 1 µM in assay [2] (setting [3]) was 0.92. For `CN(C)c1ccc(C(=O)CNC(=O)c2ccc(F)cc2Cl)cc1` [Example 115, 2-chloro-N-(2-(4-(dimethylamino)phenyl)-2-oxoethyl)-4-fluorobenzamide], in assay [1], the “In vivo relative invation” value was determined as 1.209. The fold induction at 1 µM in assay [2] (setting [3]) turned out to be 2.04.

For `CN(C)c1ccc(C(=O)CNC(=O)c2ccc(F)c(F)c2)cc1` [Example 116, N-(2-(4-(dimethylamino)phenyl)-2-oxoethyl)-3,4ifluorobenzamide], the “In vivo relative invation” value in assay [1] was determined as 1.164. The fold induction at 1 µM in assay [2] (setting [3]) amounted to 2.15. Turning to `O=C(COc1ccccc1C(=O)NCC(=O)c1ccccc1)NC1CCCCC1` [Example 230, 2-(2-(cyclohexylamino)-2-oxoethoxy)-N-(2-oxo-2-phenylethyl)benzamide], in assay [1], the “In vivo relative invation” value worked out at 1.267. Besides, in assay [2] (setting [3]), the fold induction at 1 µM came to 1.08. With `CC(Oc1ccccc1)C(=O)NCC(=O)c1cccnc1` (stereo not drawn) [Example 131, N-(2-oxo-2-(pyridin-3-yl)ethyl)-2-phenoxypropanamide], the “In vivo relative invation” value in assay [1] is 1.293. For the same compound, in assay [2] (setting [3]), the fold induction at 1 µM amounted to 1.19. `CCC(=O)NCC(=O)c1cccc(OC)c1` [Example 124, N-(2-(3-methoxyphenyl)-2-oxoethyl) propionamide]: the “In vivo relative invation” value in assay [1] turned out to be 1.266. Also, the fold induction at 1 µM in assay [2] (setting [3]) is 1.04. The like results for `CCC(=O)N1CCC(Oc2ccccc2C(=O)NCC(=O)c2ccccc2)CC1` [Example 164, N-(2-oxo-2-phenylethyl)-2-((1-propionylpiperidin-4-yl)oxy)benzamide] were, in that order, 1.088 and 0.98. `CC(C)(C)C(=O)NCC(=O)c1ccc(Cl)cc1` [Example 66, N-(2-(4-chlorophenyl)-2-oxoethyl)pivalamide]: in assay [1], the “In vivo relative invation” value was 1.168. In addition, the fold induction at 1 µM in assay [2] (setting [3]) was 0.87. The like results for `CCCCCN(CCCCC)Cc1cccc(C(=O)NCC(=O)c2cccc(OC)c2)c1` [Example 291, 3-((dipentylamino)methyl)-N-(2-(3-methoxyphenyl)-2-oxoethyl)benzamide] were, in that order, 1.126 and 1.62. The matching figures for `C=CCN(CC=C)Cc1cccc(C(=O)NCC(=O)c2cccc(OC)c2)c1` [Example 285, 3-((diallylamino)methyl)-N-(2-(3-methoxyphenyl)-2-oxoethyl)benzamide]: 1.247 and 1.47. In the case of `O=C(CNC(=O)c1ccc(C(F)(F)F)cc1)c1ccccc1` [Example 32, N-(2-oxo-2-phenylethyl)-4-(trifluoromethyl)benzamide], the “In vivo relative invation” value in assay [1] worked out at 1.383. For the same compound, the fold induction at 1 µM in assay [2] (setting [3]) is 1.02.

Take `CCOC(=O)N1CCN(Cc2ccc(C(=O)NCC(=O)c3ccccc3)cc2)CC1` [Example 277, ethyl 4-(4-((2-oxo-2-phenylethyl)carbamoyl)benzyl)piperazine-1-carboxylate]: the “In vivo relative invation” value in assay [1] was determined as 1.126. Also, the fold induction at 1 µM in assay [2] (setting [3]) turned out to be 1.3. With `Cc1cc(C)cc(C(=O)NCC(=O)c2ccc(N(C)C)cc2)c1` [Example 120, N-(2-(4-(dimethylamino)phenyl)-2-oxoethyl)-3,5-dimethylbenzamide], the “In vivo relative invation” value in assay [1] stood at 1.097. Further, the fold induction at 1 µM in assay [2] (setting [3]) amounted to 1.38.

For the compound `COCC(=O)N1CCC(Oc2ccccc2C(=O)NCC(=O)c2ccccc2)CC1` [Example 178, 2-((1-(2-methoxyacetyl)piperidin-4-yl)oxy)-N-(2-oxo-2-phenylethyl)benzamide], the “In vivo relative invation” value in assay [1] came out at 1.228. For the same compound, the fold induction at 1 µM in assay [2] (setting [3]) is 0.91. `Cc1cccc(C(=O)NCC(=O)c2ccc(N3CCOCC3)cc2)c1` [Example 141, 3-methyl-N-(2-(4-morpholinophenyl)-2-oxoethyl)benzamide]: the “In vivo relative invation” value in assay [1] is 1.393. In addition, in assay [2] (setting [3]), the fold induction at 1 µM was 1.06.

For `Cc1ccc(S(=O)(=O)NCC(=O)c2ccccc2)cc1` [Example 27, 4-methyl-N-(2-oxo-2-phenylethyl)benzenesulfonamide], in assay [1], the “In vivo relative invation” value is on record as 1.044. Besides, in assay [2] (setting [3]), the fold induction at 1 µM came out at 1.31. `Cc1[nH]c(/C=C2\C(=O)Nc3ccc(S(=O)(=O)Cc4c(Cl)cccc4Cl)cc32)c(C)c1C(=O)N1CCC[C@@H]1CN1CCCC1` [PHA, PHA-665752, reference compound]: in assay [2] (setting [3]), the fold induction at 1 µM stood at 1.43. KITENIN: the “In vivo relative invation” value in assay [1] is 1.419 and 1.156 and 1.58 and 1.288 and 1.205 and 1.369.
